Reference: US9884839B2, “Inhibitors of 17Beta-hydroxysteroid dehydrogenases type 1 and type 2” (ElexoPharm GmbH, priority 2014, dated 2018)
Where “and” joins values, the source holds several entries; their conditions need not be identical. Equal entries are not always repeated. Where two headings read alike, the source gives them in different places.

Assays:
Type in all cases: biochemical
rat 17β-HSD1 = biological target: T1, rat 17β-HSD1 (Rattus norvegicus, UniProt P51657); assay: Inhibition of rat 17β-HSD1 (recombinant, HEK293 lysate); details: for inhibition at […] / % Inhibition r17β-HSD1: Cmpd conc. 250 nM
T1 construct: made in house; host or cells: HEK293 cells, transient transfection; 1,000 g supernatant of the cell lysate
T1 sequence (P51657 1-344): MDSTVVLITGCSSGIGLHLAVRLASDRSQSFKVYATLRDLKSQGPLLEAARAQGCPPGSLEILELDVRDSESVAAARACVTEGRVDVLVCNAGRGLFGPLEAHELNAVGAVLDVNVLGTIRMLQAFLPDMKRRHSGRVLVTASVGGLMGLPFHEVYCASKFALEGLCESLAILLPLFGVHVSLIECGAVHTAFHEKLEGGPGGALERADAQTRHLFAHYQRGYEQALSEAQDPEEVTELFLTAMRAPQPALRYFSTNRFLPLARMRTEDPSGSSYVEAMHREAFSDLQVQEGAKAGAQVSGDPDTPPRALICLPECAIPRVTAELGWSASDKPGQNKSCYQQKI

mouse 17β-HSD2 = biological target: T2, mouse 17β-HSD2 (Mus musculus, UniProt P51658); assay: Inhibition of mouse 17β-HSD2 (liver microsomal fraction); details: for IC50: read-out: IC50 m17β-HSD2
T2 construct: The pellet fractions containing the microsomal 17β-HSD2 were used for the determination of E1 formation; from tissue; host or cells: mouse liver, microsomal fraction
T2 sequence (P51658 1-381): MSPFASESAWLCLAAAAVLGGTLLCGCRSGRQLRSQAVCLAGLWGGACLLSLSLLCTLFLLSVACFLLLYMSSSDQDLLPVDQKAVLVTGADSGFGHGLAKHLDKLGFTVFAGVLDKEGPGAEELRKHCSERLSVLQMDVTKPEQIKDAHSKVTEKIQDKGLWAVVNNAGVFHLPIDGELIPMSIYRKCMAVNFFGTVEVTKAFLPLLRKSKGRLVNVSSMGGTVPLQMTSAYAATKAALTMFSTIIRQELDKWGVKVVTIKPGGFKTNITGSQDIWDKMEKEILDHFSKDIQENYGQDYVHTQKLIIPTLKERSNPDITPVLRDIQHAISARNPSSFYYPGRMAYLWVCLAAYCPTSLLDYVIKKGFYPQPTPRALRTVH
Description: (§1) Microsomal 17β-HSD2 fractions were obtained from mouse or rat liver. Fresh liver tissues were processed as described for the human placental 17β-HSD2 preparation. The pellet fractions containing the microsomal 17β-HSD2 were used for the determination of E1 formation.
(§2) The conversion rate was calculated after analysis of the resulting chromatograms according to the following equation: % conversion=[% E1/(% E1+% E2)]×100

human 17β-HSD2 = biological target: T3, human 17β-HSD2 (Homo sapiens, UniProt P37059); assay: Inhibition of human 17β-HSD2 (conversion of [3H]-E2 to E1); details: for inhibition at 1 µM: read-out: % inhibition h17β-HSD2 @ 1 μM; for IC50: read-out: IC50 [nM] h17β-HSD2
T3 construct: 17β-HSD2 was obtained from the microsomal fraction; from tissue; host or cells: human placenta, microsomal fraction
T3 sequence (P37059 1-387): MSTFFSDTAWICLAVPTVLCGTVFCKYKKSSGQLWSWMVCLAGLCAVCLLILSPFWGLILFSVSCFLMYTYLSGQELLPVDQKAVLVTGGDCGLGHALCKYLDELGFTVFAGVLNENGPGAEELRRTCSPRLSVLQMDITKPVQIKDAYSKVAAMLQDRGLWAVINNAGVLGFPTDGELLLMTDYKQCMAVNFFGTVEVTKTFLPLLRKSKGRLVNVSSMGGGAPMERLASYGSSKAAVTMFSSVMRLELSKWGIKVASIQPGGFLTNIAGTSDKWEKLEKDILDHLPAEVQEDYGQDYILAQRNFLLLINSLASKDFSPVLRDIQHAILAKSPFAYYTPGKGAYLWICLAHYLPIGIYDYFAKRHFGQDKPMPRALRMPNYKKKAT
Description: Fresh human placenta was homogenized, and cytosolic fraction and microsomes were separated by differential centrifugation at 1,000 g, 10,000 g and 150,000 g.
as §2

human 17β-HSD1 = biological target: T4, human 17β-HSD1 (Homo sapiens, UniProt P14061); assay: Inhibition of human 17β-HSD1 (conversion of [3H]-E1 to E2, HPLC radioflow detection); details: for inhibition at 0.1 µM: read-out: % inhibition h17β-HSD1 @ 100 nM, compound 100 nM; for IC50: read-out: IC50 [nM] h17β-HSD1; for inhibition at 1 µM: read-out: % inhibition h17β-HSD1 @ 1 μM
T4 construct: For the partial purification of 17β-HSD1, the cytosolic fraction was precipitated with ammonium sulfate; from tissue; host or cells: human placenta, cytosolic fraction, ammonium sulfate precipitate
T4 sequence (P14061 1-328): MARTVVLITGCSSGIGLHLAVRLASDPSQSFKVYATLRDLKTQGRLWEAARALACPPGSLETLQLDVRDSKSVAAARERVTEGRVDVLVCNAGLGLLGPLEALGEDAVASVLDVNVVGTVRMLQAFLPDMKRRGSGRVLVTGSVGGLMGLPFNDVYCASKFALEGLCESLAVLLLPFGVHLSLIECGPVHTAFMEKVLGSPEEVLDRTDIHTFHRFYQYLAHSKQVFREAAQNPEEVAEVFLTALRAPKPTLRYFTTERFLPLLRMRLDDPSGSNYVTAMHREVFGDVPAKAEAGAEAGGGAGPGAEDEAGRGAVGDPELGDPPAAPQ

mouse 17β-HSD1 = biological target: T5, mouse 17β-HSD1 (Mus musculus, UniProt P51656); assay: Inhibition of mouse 17β-HSD1 (recombinant, HEK293 lysate)
T5 construct: made in house; host or cells: HEK293 cells, transient transfection; 1,000 g supernatant of the cell lysate
T5 sequence (P51656 1-344): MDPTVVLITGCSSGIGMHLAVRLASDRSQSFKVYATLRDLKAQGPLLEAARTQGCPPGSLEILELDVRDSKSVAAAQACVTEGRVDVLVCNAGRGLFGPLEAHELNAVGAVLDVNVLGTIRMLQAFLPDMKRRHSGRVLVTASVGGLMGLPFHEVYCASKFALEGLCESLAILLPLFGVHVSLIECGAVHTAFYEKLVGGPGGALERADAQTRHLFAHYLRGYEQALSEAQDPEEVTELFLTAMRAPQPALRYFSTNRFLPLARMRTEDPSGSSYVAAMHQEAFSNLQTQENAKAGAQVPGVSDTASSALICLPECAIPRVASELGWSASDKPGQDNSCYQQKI

rat 17β-HSD2 = biological target: T6, rat 17β-HSD2 (Rattus norvegicus, UniProt Q62730); assay: Inhibition of rat 17β-HSD2 (liver microsomal fraction)
T6 construct: The pellet fractions containing the microsomal 17β-HSD2 were used for the determination of E1 formation; from tissue; host or cells: rat liver, microsomal fraction
T6 sequence (Q62730 1-381): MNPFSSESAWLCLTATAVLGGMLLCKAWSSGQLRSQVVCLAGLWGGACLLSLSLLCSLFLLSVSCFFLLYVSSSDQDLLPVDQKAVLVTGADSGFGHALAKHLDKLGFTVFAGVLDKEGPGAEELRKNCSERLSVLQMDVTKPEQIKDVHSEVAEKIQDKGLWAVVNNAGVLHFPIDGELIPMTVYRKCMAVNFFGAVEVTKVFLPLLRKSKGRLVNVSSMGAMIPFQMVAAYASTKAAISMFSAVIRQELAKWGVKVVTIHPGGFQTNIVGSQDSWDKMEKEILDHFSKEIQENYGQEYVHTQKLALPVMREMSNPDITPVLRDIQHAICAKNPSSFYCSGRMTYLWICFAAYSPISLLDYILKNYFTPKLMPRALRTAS
Description: as §1, §2

[1] = read-out: % Inhibition r17β-HSD1
[2] = read-out: % inhibition m17β-HSD2 @ 1 μM
[3] = read-out: % inhibition m17β-HSD1 @ 1 μM
[4] = read-out: % Inhibition r17β-HSD2
[5] = read-out: Inhibition @ 1 μM m17β-HSD2
[6] = human placental cytosolic enzyme, E1 500 nM, NADH, Tables 1, 4-11
[7] = Tables 4 and 6, no % sign and concentration not given, Table 1 lists these compounds as inhibition @ 1 μM, read-out: IC50 [nM] or % inhibition m17β-HSD1 (bare number, kind not marked)
[8] = read-out: Inhibition @ 1 μM m17β-HSD1

Structure (SMILES)	inhibition at […] (rat 17β-HSD1; [1])	inhibition at 1 µM (mouse 17β-HSD2; [2])	inhibition at 1 µM (mouse 17β-HSD1; [3])	inhibition at […] (rat 17β-HSD2; [4])	inhibition at 1 µM (mouse 17β-HSD2; [5])	IC50 (human 17β-HSD1; [6])	inhibition at 1 µM (mouse 17β-HSD1; [7])	inhibition at 1 µM (mouse 17β-HSD1; [8])	IC50 (human 17β-HSD2)	IC50 (mouse 17β-HSD2)	also measured
O=C(c1ccc(-c2ccc(F)cc2F)s1)c1cccc(O)c1F [C, reference compound]	35%	75%	18%	20%	–	–	–	–	–	–	inhibition at 0.1 µM (human 17β-HSD2; read-out: % inhibition h17β-HSD2 @ 100 nM): 87%; inhibition at 0.1 µM (human 17β-HSD1): 92%
O=C(c1ccc(Br)s1)c1c(F)ccc(O)c1F [Compound 1e, (5-Bromo-thiophen-2-yl)-(2,6-difluoro-3-hydroxy-phenyl)-methanone]	5%	80%	5%	60%	–	–	–	–	–	–	inhibition at 0.1 µM (human 17β-HSD2; read-out: IC50 [nM] or % inhibition h17β-HSD1 (second column so headed, Table 9): % @ 100 nM): 71%; inhibition at 0.1 µM (human 17β-HSD1): 85%
O=C(c1ccc(-c2ccc(F)cc2F)s1)c1c(F)ccc(O)c1F [Compound 10, (2,6-Difluoro-3-hydroxy-phenyl)-[5-(2,4-difluoro-phenyl)-thiophen-2-yl]-methan-one]	63%	–	–	66%	67%	3.5 nM	41%	41%	–	–	–
COc1ccc(-c2ccc(C(=O)c3c(F)ccc(O)c3F)s2)cc1S(=O)(=O)N1CCOCC1 [Compound 19, (2,6-Difluoro-3-hydroxy-phenyl)-{5-[4-methoxy-3-(morpholine-4-sulfonyl)-phen-yl]-thiophen-2-yl}-methanone]	26%	–	–	–	44%	–	–	58%	–	–	inhibition at 1 µM (human 17β-HSD2): 85%; inhibition at 1 µM (human 17β-HSD1): 79%; % Inhibition r17β-HSD2 (rat 17β-HSD2): n.i.^c
O=C(c1ccc(-c2ccc(O)c(Cl)c2)s1)c1c(F)ccc(O)c1F [Compound 20, [5-(3-Chloro-4-hydroxy-phenyl)-thiophen-2-yl]-(2,6-difluoro-3-hydroxy-phenyl)-methanone]	–	95%	50%	–	82%	0.5 nM	–	50%	20 nM	–	inhibition at 0.5 µM (rat 17β-HSD1; Cmpd conc. 500 nM, read-out: % Inhibition r17β-HSD1): 48%; inhibition at 0.5 µM (rat 17β-HSD2; [4]): 98%
CC(=O)N1CCN(Cc2cc(-c3ccc(C(=O)c4c(F)ccc(O)c4F)s3)cc(Cl)c2O)CC1 [Compound 29, 1-(4-{3-Chloro-5-[5-(2,6-difluoro-3-hydroxy-benzoyl)-thiophen-2-yl]-2-hydroxy-benzyl}-piperazin-1-yl)-ethanone]	–	–	–	–	40%	–	–	16%	11 nM	–	% Inhibition r17β-HSD1 (rat 17β-HSD1): n.i.^c; IC50 (human 17β-HSD1): 2.1 nM; % Inhibition r17β-HSD2 (rat 17β-HSD2): n.i.^c
O=C(c1ccc(-c2cc(Cl)c(O)c(Cn3ccnn3)c2)s1)c1c(F)ccc(O)c1F [Compound 32, [5-(3-Chloro-4-hydroxy-5-[1,2,3]triazol-1-ylmethyl-phenyl)-thiophen-2-yl]-(2,6-difluoro-3-hydroxy-phenyl)-methanone]	–	–	–	66%	–	–	–	–	–	–	% Inhibition r17β-HSD1 (rat 17β-HSD1): n.i.^c; inhibition at 1 µM (human 17β-HSD2): 30%; inhibition at 1 µM (human 17β-HSD1): 37%; Inhibition @ 1 μM m17β-HSD1 (mouse 17β-HSD1; compound 1 μM, Table 1, bare numbers): n.i.^c
Nc1cccc(-c2ccc(C(=O)c3cc(F)c(F)c(O)c3F)s2)c1 [Compound 35, [5-(3-Aminophenyl)thiophen-2-yl](2,4,5-trifluoro-3-hydroxyphenyl)methanone]	46%	–	–	100%	80%	49 nM	13%	9%	5 nM	177 nM	–
O=C(c1ccc(-c2cccc(NS(=O)(=O)c3ccccc3OC(F)(F)F)c2)s1)c1cc(F)c(F)c(O)c1F [Compound 37, N-{3-[5-(2,4,5-Trifluoro-3-hydroxybenzoyl)thiophen-2-yl]phenyl}-2-trifluoromethoxybenzenesulfonamide]	29%	–	55%	93%	–	5.8 nM	–	55%	–	79 nM and 22 nM	–
O=C(c1ccc(-c2ccc(F)cc2F)s1)c1cc(F)c(F)c(O)c1F [Compound 40, [5-(2,4-Difluoro-phenyl)-thiophen-2-yl]-(2,4,5-trifluoro-3-hydroxy-phenyl)-methanone]	58%	–	–	86%	–	–	27.5%	28%	1.4 nM	326 nM	IC50 (human 17β-HSD1): 7.2 nM
